Assay results reported in patent publication US5496947A, “Quinolone carboxylic acid derivatives” (Dong Wha Pharmaceutical Industrial Co., Ltd., priority 1994, dated 1996).
Converted amounts (≈) assume the structure as drawn. Like-named read-outs stand apart in the source and are kept apart here.

Experiments:
Enterobacter cloacae = assay: MIC, 2-fold dilution method in micro-well plate, E. cloacae; type: cell-based; conditions: read-out: Minimum Inhibitory Concentration
Protocol: (§1) The in vitro antibiotic activity of the present compound is measured using 2-fold dilution method with a micro-well plate and the bacteria are inoculated in about 10^5 cfu/ml after an overnight culture in a brain-heart infusion (BHI) broth at 37° C. The novel compounds of the present invention are converted to a hydrochloride salt form and diluted with a sterilized distilled water to make 10 mg/ml aqueous solution. After the mother liquor wherein the compound is diluted to the two-fold concentration has been obtained in the form of an aqueous solution, the respective 0.1 ml of diluted liquor is transferred to a well and is inoculated with 0.1 ml of the culture fluid to make about (10^5 -10^6)/2 cfu/ml.
(§2) After cultivation at 37° C., the minimum inhibitory concentration (MIC) is measured and recorded in Table I-V.
(§3) Table I-V show the minimum inhibitory concentrations (MIC).
Enterobacter cloacae ATCC 23355

[1] = system: Escherichia coli ATCC 25922; assay: MIC, 2-fold dilution method in micro-well plate, E. coli; type: cell-based
Protocol: as §1, §2, §3
Escherichia coli ATCC 25922

[2] = system: Salmonella typhimurium ATCC 14028; assay: MIC, 2-fold dilution method in micro-well plate, S. typhimurium; type: cell-based; conditions: Salmonella enterica, read-out: Minimum Inhibitory Concentration
Protocol: as §1, §2, §3
Salmonella typhimurium ATCC 14028

[3] = system: Citrobacter freundii ATCC 8090; assay: MIC, 2-fold dilution method in micro-well plate, C. freundii; type: cell-based
Protocol: as §1, §2, §3
Citrobacter freundii ATCC 8090

[4] = system: Shigella sonnei ATCC 25931; assay: MIC, 2-fold dilution method in micro-well plate, S. sonnei; type: cell-based; conditions: S. sonnei ATCC25931, 37° C., read-out: Minimum Inhibitory Concentration
Protocol: as §1, §2, §3
Shigella sonnei ATCC 25931

[5] = system: Proteus vulgaris ATCC 13315; assay: MIC, 2-fold dilution method in micro-well plate, P. vulgaris; type: cell-based
Protocol: as §1, §2, §3
Proteus vulgaris ATCC 13315

[6] = system: Serratia marcescens ATCC 8100; assay: MIC, 2-fold dilution method in micro-well plate, S. marcescens; type: cell-based
Protocol: as §1, §2, §3
Serratia marcescens ATCC 8100

[7] = system: Acinetobacter calcoaceticus; assay: MIC, 2-fold dilution method in micro-well plate, A. calcoaceticus; type: cell-based
Protocol: as §1, §2
Table I-V show the minimum inhibitory concentrations (MIC). […]

[8] = system: Streptococcus faecalis ATCC 29212; assay: MIC, 2-fold dilution method in micro-well plate, S. faecalis ATCC 29212; type: cell-based; conditions: Enterococcus faecalis; S. faecalis ATCC29212, 37° C.; read-out: Minimum Inhibitory Concentration
Protocol: as §1, §2, §3
Streptococcus faecalis ATCC 29212

[9] = system: Streptococcus pneumoniae ATCC 6303; assay: MIC, 2-fold dilution method in micro-well plate, S. pneumoniae; type: cell-based; conditions: S. pneuinoniae ATCC6303, 37° C., read-out: Minimum Inhibitory Concentration
Protocol: as §1, §2, §3
Streptococcus pneumoniae ATCC 6303

[10] = system: Enterobacter aerogenes ATCC 13048; assay: MIC, 2-fold dilution method in micro-well plate, E. aerogenes; type: cell-based; conditions: Klebsiella aerogenes
Protocol: as §1, §2, §3
Enterobacter aerogenes ATCC 13048

[11] = system: Streptococcus pyrogens ATCC 19615; assay: MIC, 2-fold dilution method in micro-well plate, S. pyrogens; type: cell-based; conditions: S. pyrogenes ATCC19615, 37° C., read-out: Minimum Inhibitory Concentration
Protocol: as §1, §2, §3
Streptococcus pyrogens ATCC 19615

[12] = system: Haemophilus influenza ATCC 35056; assay: MIC, 2-fold dilution method in micro-well plate, H. influenzae; type: cell-based; conditions: H. influenzae ATCC35056, 37° C.; read-out: Minimum Inhibitory Concentration
Protocol: as §1, §2, §3
Haemophilus influenza ATCC 35056

[13] = system: Pseudomonas aeruginosa ATCC 27853; assay: MIC, 2-fold dilution method in micro-well plate, P. aeruginosa; type: cell-based
Protocol: as §1, §2, §3
Pseudomonas aeruginosa ATCC 27853

[14] = system: Streptococcus faecalis ATCC 19433; assay: MIC, 2-fold dilution method in micro-well plate, S. faecalis ATCC 19433; type: cell-based; conditions: Enterococcus faecalis; S. faecalis ATCC19433, 37° C.; read-out: Minimum Inhibitory Concentration
Protocol: as §1, §2, §3
Streptococcus faecalis ATCC 19433

[15] = system: Shigella flexneri ATCC 12022; assay: MIC, 2-fold dilution method in micro-well plate, S. flexneri; type: cell-based; conditions: S. flexneri ATCC12022, 37° C., read-out: Minimum Inhibitory Concentration
Protocol: as §1, §2, §3
Shigella flexneri ATCC 12022

[16] = system: Klebsiella pneumoniae ATCC 13883; assay: MIC, 2-fold dilution method in micro-well plate, K. pneumoniae; type: cell-based
Protocol: as §1, §2, §3
Klebsiella pneumoniae ATCC 13883

[17] = Pharmacokinetic properties in ICR mouse, oral and subcutaneous, Bio-Assay (Agar well method); type: in vivo; conditions: 40 mg/kg, average of four tests; for dose excreted: urine, read-out: Urine Recovery
Protocol: The pharmacokinetic properties are tested by orally administrating and subcutaneously injecting a test compound and a substance for control to a ICR Mouse with 22 g±10% weight, drawing blood after 10, 20, 30, 45, 60, 90, 120, 150, 180 and […] and analyzed by Bio-Assay (Agar well method).

[18] = E. coli ATCC25922, 37° C., read-out: Minimum Inhibitory Concentration
[19] = ATCC8090, read-out: Minimum Inhibitory Concentration
[20] = P. vulgaris ATCC13315, 37° C., read-out: Minimum Inhibitory Concentration
[21] = ATCC8100, read-out: Minimum Inhibitory Concentration
[22] = E. aerogenes ATCC13048, 37° C., read-out: Minimum Inhibitory Concentration
[23] = P. aerugirnosa ATCC27853, 37° C., read-out: Minimum Inhibitory Concentration
[24] = K. pneumoniae ATCC13883, 37° C., read-out: Minimum Inhibitory Concentration
[25] = E. cloacae ATCC23355 (as in tables), 37° C.
[26] = S. marcescens ATCC8100, 37° C., read-out: Minimum Inhibitory Concentration
[27] = A. calcoaceticus ATCC8090 (as in tables), 37° C., read-out: Minimum Inhibitory Concentration
[28] = ATCC13048, read-out: Minimum Inhibitory Concentration
[29] = C. freundii ATCC8090, 37° C., read-out: Minimum Inhibitory Concentration
[30] = ATCC13315, read-out: Minimum Inhibitory Concentration
[31] = ATCC27853, read-out: Minimum Inhibitory Concentration

| SMILES | MIC (Enterobacter cloacae) | MIC [1, 18] | MIC [2] | MIC [3, 19] | MIC [4] | MIC [5, 20] | MIC [6, 21] | MIC [8] | MIC [9] | MIC [10, 22] | MIC [11] | MIC [12] | MIC [13, 23] | MIC [14] | MIC [15] | MIC [16, 24] | MIC (Enterobacter cloacae; [25]) | MIC [6, 26] | MIC [7, 27] | MIC [10, 28] | other results |
| --- | --- | --- | --- | --- | --- | --- | --- | --- | --- | --- | --- | --- | --- | --- | --- | --- | --- | --- | --- | --- | --- |
| Cl.NC1CCN(c2cc3c(cc2F)c(=O)c(C(=O)O)cn3-c2ccncc2F)C1 (stereo not drawn) [Example 5, 1-(3-fluoro-4-pyridyl)-6-fluoro-7-(3-amino-1-pyrrolidinyl)-1,4-dihydro-4-oxoquinoline-3-carboxylic acid hydrochloride] | 0.313 mg/L | 0.156 mg/L | 0.313 mg/L | 0.313 mg/L | 0.078 mg/L | 0.078 mg/L | 0.313 mg/L | 2.5 mg/L | 2.5 mg/L | 0.156 mg/L | 5 mg/L | 0.313 mg/L | 0.313 mg/L | 2.5 mg/L | 0.625 mg/L | 0.156 mg/L |  |  |  |  | MIC [7, 19]: 0.313 mg/L |
| N[C@H]1CCN(c2cc3c(cc2F)c(=O)c(C(=O)O)cn3-c2ccncc2F)C1 [Example 6, 1-(3-fluoro-4-pyridyl)-6-fluoro-7-[(3S)-3-amino-1-pyrrolidinyl]-1,4-dihydro-4-oxoquinoline-3-carboxylic acid] |  | 0.078 mg/L (≈ 0.202 µM) |  | 0.313 mg/L (≈ 0.81 µM) | 0.02 mg/L (≈ 0.0518 µM) | 0.078 mg/L (≈ 0.202 µM) |  | 2.5 mg/L (≈ 6.47 µM) | 2.5 mg/L (≈ 6.47 µM) |  | 2.5 mg/L (≈ 6.47 µM) | 0.313 mg/L (≈ 0.81 µM) | 0.156 mg/L (≈ 0.404 µM) | 1.25 mg/L (≈ 3.24 µM) | 0.313 mg/L (≈ 0.81 µM) | 0.156 mg/L (≈ 0.404 µM) | 0.156 mg/L (≈ 0.404 µM) | 0.078 mg/L (≈ 0.202 µM) | 0.156 mg/L (≈ 0.404 µM) | 0.313 mg/L (≈ 0.81 µM) | MIC ([2]; S. typhisurium ATCC14028, 37° C.): 0.156 mg/L (≈ 0.404 µM) |
| Cl.O=C(O)c1cn(-c2ccncc2F)c2nc(N3CCNCC3)c(F)cc2c1=O [Example 7, 1-(3-fluoro-4-pyridyl)-6-fluoro-7-(1-piperazinyl)-1,4-dihydro-4-oxo-1,8-naphthyridine-3-carboxylic acid hydrochloride] |  | 0.625 mg/L | 0.313 mg/L |  | 0.313 mg/L |  |  | 5 mg/L | 2.5 mg/L | 0.625 mg/L | 5 mg/L | 0.313 mg/L |  | 2.5 mg/L | 0.156 mg/L | 0.625 mg/L | 0.625 mg/L | 1.25 mg/L | 2.5 mg/L |  | MIC [3, 29]: 1.25 mg/L; MIC [5, 30]: 0.313 mg/L; MIC [13, 31]: 0.625 mg/L |
| CN1CCN(c2nc3c(cc2F)c(=O)c(C(=O)O)cn3-c2ccncc2F)CC1.Cl [Example 8, 1-(3-fluoro-4-pyridyl)-6-fluoro-7-(4-methyl-1-piperazinyl)-1,4-dihydro-4-oxo-1,8-naphthyridine-3-carboxylic acid hydrochloride] | 0.625 mg/L |  | 0.313 mg/L |  | 0.625 mg/L |  | 0.625 mg/L | 5 mg/L | 5 mg/L |  | 10 mg/L | 0.625 mg/L |  | 5 mg/L | 0.313 mg/L |  |  |  | 1.25 mg/L | 0.625 mg/L | MIC ([1]; ATCC25922, read-out: Minimum Inhibitory Concentration): 0.313 mg/L; MIC [3, 29]: 1.25 mg/L; MIC [5, 30]: 0.313 mg/L; MIC [13, 31]: 0.625 mg/L; MIC ([16]; ATCC13883, read-out: Minimum Inhibitory Concentration): 0.625 mg/L |
| CC1COc2c(N3CCN(C)CC3)c(F)cc3c(=O)c(C(=O)O)cn1c23 (stereo not drawn) [Ofloxacin, reference compound] |  |  |  |  |  |  |  |  |  |  |  |  |  |  |  |  |  |  |  |  | AUC ([17]; blood, po, P.O): 12.8 µg·h/mL; Cmax ([17]; blood, po, P.O): 9.41 µg/mL; Tmax ([17]; blood, po, P.O): 45 min; bioavailability ([17]; blood, po, P.O): 89.8%; AUC ([17]; blood, sc, S.C): 14.2 µg·h/mL; Cmax ([17]; blood, sc, S.C): 12.9 µg/mL; Tmax ([17]; blood, sc, S.C): 25.2 min; half-life ([17]; blood, sc, S.C): 25.2 min; dose excreted ([17]; po, P.O): 32.2%; dose excreted ([17]; sc, S.C): 39.1% |
